In US20230312639A1, “GPER PROTEOLYTIC TARGETING CHIMERAS” (University of Iowa Research Foundation, priority 2020, published 2023):
Residues, ends and D or L forms follow the SMILES beside them. *: point of attachment. Cbz = O=C(OCc1ccccc1)*

What was measured:
[1] = biological target: T1, recombinant HA-tagged GPER (Homo sapiens, UniProt Q99527); assay: HA immunoblot of lysates of HEK293 cells stably expressing HA-tagged GPER; type: cell-based; settings: various concentrations, 16 hr
T1 construct: expressed in transfected cells
Description: FIG. 38. […] HEK293 cells stably expressing recombinant HA-tagged GPER were treated with various concentrations of CIMBA-PROTAC-001 or partial PROTAC for 16 hr and then lysed in detergent. Equivalent amounts of protein lysate were resolved in SDS-polyacrylamide gels and then electrotransferred onto PVDF […] membranes. Membranes were probed with rabbit HA antibodies, top. HA- antibodies were stripped from the membrane at low pH and the membrane was then probed with […] transferrin receptor (TFNR) antibodies as a specificity and loading control.

ERs (ERa and ERb) = assay: Fluorescence polarization competitive binding with E2-FITC in cytosolic fractions from MCF-7 cells; set-up: species or system human
Description: ER binding was measured using cytosolic fractions prepared from MCF-7 cells by fluorescence polarization. MCF-7 (10^6 cells) were detached in EDTA, cell homogenates were prepared using a Dounce homogenizer and subcellular fractions were isolated by differential centrifugation as previously described (Filardo et al, 2002). The protein concentration of each fraction was determined by bichinchoninic acid (BCA) assay (Pierce ™ BCA protein assay kit, Thermo Fisher). For saturation binding assay of the probe, different concentrations of cytosolic fraction were diluted in assay buffer (10 mM Tris-HCl, pH 7.4; 50 mM KCl, 10% glycerol, 0.1 mM dithiothreitol (DTT), 1 ug/mL BGG, 10 nM protease inhibitor cocktail (Roche) to a final volume of 200 uL containing 10 nM Ez-FITC. The mixture was incubated at ambient temperature for 1 hour and interaction of the probe with cytosolic protein was determined by fluorescence polarization (FP). For competitive binding assay, an aliquot of cytosolic fraction and E2-FITC (10 nM final concentration) was mixed and incubated at 4° C. for 1 hour. Then different concentrations of drugs and controls were added to the mixture. The mixture was incubated for an additional hour and then subjected to FP. All samples were measured in triplicate. Negative controls (only cytosolic fraction or only E2-FITC) and positive control (E2-FITC and cytosolic fraction at 100% binding without treatment) were included. Relative binding affinities were expressed as the percentage of FP recorded from treated wells compared to the positive control. FP values in millipolarization units (mP) were measured at ex/em wavelength of 485 nm/530 nm respectively using the Spectra Max plus 384 Microplate Spectrophotometer (Molecular Devices, Sunnyvale, CA) in 96-well, black, flat-bottom microplates (Greiner Bio-One North America, Inc., Monroe, NC). Kd values of the probe were determined by nonlinear regression fitting of the saturation curves, while IC50 values of treatment were determined by nonlinear regression fitting of the competition curves.
In contrast to GPER, ERa and ERb are intracellular receptors that are concentrated in the cytoplasm and in the nucleus. […] A saturation analysis was performed using 10 nM E2-FITC and increasing concentrations of cytosolic protein (FIG. 25D).

GPER [2] = biological target: T2, GPER (Homo sapiens, UniProt Q99527); settings: Filardo et al., 2007; cited from earlier work
GPER [3] = biological target: T2, GPER; settings: Filardo et al., 2007; cited from earlier work; remark: listed apart in the source
HiBiT-GPER = HiBiT-GPER (Homo sapiens, UniProt Q99527); assay: Nano-BiT binary luminescence complementation, transfected HEK-293 cells, total receptor; type: cell-based; settings: for effect on UI-EP001 / UI-EP002 degradation of HiBiT-GPER: 100 µM UI-EP001 or UI-EP002, 1 hour, MG132 10 µM, chloroquine 100 µM, E2 or aldosterone 100 nM-100 µM
Description: FIG. 26. […] HEK-293 cells (ERα^-, GPER^-) were transiently transfected with 50 ng HiBiT-GPER or HiBiT-ER plus pcDNA3.1(+) zeo carrier plasmid. […] (C) Histogram depicting total HiBiT-GPER and HiBiT-ER following a 1-hour treatment at […] drug or control. […] Results shown represent the mean ± S.E. of three independent experiments.
(§1) FIG. 28. […] Total receptor was then measured by binary luminescence complementation in detergent-permeabilized cells. […] Total receptor was then quantified by binary luminescence complementation. Representative luminescence data and mean values and SDs derived from three independent experiments are shown.
(§2) Transient transfections and binary Nano-Bit ™ luminescence assays. Total HiBiT-tagged GPER or ER estrogen receptors were detected in detergent-permeabilized cells by binary luminescence complementation with recombinant LgBit and substrate using the Nano-Glo HiBiT Extracellular Detection system kit (Promega Corporation, Madison, Wl). In brief, HEK293 cells (0.75 × 10^6) were seeded in 35 mm tissue culture dishes and 24 hours later were transiently transfected with 50 ng of HiBiT-GPER or HiBiT-ERa and 950 ng of pcDNA3.1(+) zeo carrier plasmid using Lipofectamine 2000 (Invitrogen, Carlsbad, CA). The next day transfected cells were harvested by trypsinization and seeded at a density of 10^4 cells/well in 96-well poly-L-lysine-coated Greiner white-bottomed microplates. On the following day, cell culture media was aspirated and replaced with 100 µL of serum-free PRF-DF12 containing E2-PROTAC, partial-PROTAC, or vehicle at various concentrations and for indicated time intervals at 37° C. […] Following treatment, total HiBiT-tagged receptor was measured in cells which were permeabilized in 0.05% Triton X-100 using HiBiT complementation reagent consisting of LgBiT protein and Nano-Gio® HiBiT substrate. Luminescence was measured using the Infinite 200 PRO multimode microplate reader from Tecan (Raleigh, NC) and reported as Relative Luminescent Units (RLU). All samples were measured in triplicate and expressed as the mean value plus or minus standard deviation.

HiBiT-ERα = biological target: T3, HiBiT-ERα (Homo sapiens, UniProt P03372); assay: as above; type: cell-based; settings: for effect on UI-EP001 / UI-EP002 degradation of HiBiT-ERα: 100 µM UI-EP001 or UI-EP002, 1 hour, MG132 10 µM, chloroquine 100 µM, E2 or aldosterone 100 nM-100 µM
T3 sequence (P03372 1-595): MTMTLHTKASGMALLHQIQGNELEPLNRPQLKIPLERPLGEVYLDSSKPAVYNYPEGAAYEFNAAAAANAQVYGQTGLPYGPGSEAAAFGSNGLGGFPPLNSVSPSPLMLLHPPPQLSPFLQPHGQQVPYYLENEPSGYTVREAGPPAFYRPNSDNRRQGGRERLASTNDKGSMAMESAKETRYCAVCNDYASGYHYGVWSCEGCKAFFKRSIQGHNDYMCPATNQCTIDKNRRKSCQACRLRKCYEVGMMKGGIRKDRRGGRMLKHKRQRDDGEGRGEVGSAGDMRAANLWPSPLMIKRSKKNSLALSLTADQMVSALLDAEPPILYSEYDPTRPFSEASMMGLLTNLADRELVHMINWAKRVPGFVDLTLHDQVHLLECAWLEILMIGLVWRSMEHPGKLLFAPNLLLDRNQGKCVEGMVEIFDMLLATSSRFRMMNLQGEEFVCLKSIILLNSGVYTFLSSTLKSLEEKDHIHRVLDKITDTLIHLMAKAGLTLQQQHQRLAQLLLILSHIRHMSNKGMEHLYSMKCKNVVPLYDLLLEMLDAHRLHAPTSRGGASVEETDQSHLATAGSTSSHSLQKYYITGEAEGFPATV
Description: FIG. 26. […] HEK-293 cells (ERα^-, GPER^-) were transiently transfected with 50 ng HiBiT-GPER or HiBiT-ER plus pcDNA3.1(+) zeo carrier plasmid. […] Results shown represent the mean ± S.E. of three independent experiments.
as §1, §2

HCC1806 cells = assay: Cell cycle analysis, propidium iodide, flow cytometry; type: cell-based, human; settings: HCC1806, 10 µM, 24 hours
Description: (§3) FIG. 30. E2-PROTACs promote estrogen receptor-dependent G2/M arrest. E2-PROTAC induced G2/M arrest in human breast cancer cell lines expressing membrane and/or intracellular estrogen receptors. […] Fixed cells were permeabilized and dyed with propidium iodide (PI). Cell cycle data were acquired on a flow cytometer and analyzed using Flow-Jo software. Data are expressed as mean ± SEM (n=3). The percentage of cells in each phase were plotted using Prism 8.0.
(§4) Cell cycle analysis. […] Following treatment, cells were harvested by trypsinization and washed twice in ice-cold PBS. Cells were then fixed in 70% ethanol at 4° C. for 30 minutes. Fixed cells were pelleted by centrifugation at 230 g for 5 minutes and the cell pellet was incubated in Krishan’s solution (3.8 mM sodium citrate (Fisher Scientific), 0.014 mM propidium iodide (AnaSpec, Fermont, Ca), 1% NP-40 (Sigma) and 2.0 mg/mL RNase A (Fisher Scientific)) for 30 minutes at 37° C. Cells were then centrifuged and washed in PBS prior to analysis using a FacScallibur flow cytometer. The data from flow cytometry were subjected to further analysis by CellQuest software version 3.3. DNA histograms generated indicate the fractions of the cell population in the sub-G1, G0-G1, S, or G2/M phase of the cell cycle.
(§5) To investigate the biological effect associated with decreased cell viability, cell cycle analysis was performed on the same four cell lines using propidium iodide staining and measured by flow cytometry 24 hours after treatment of cells with 10 µM E2-PROTAC or partial PROTAC (FIG. 30).

MCF-7 cells = assay: as above; type: cell-based, human; settings: MCF-7, 10 µM, 24 hours
Description: as §3, §4, §5

SKBR3 cells = assay: as above; type: cell-based, human; settings: SKBR3, 10 µM, 24 hours
Description: as §3, §4, §5

ERα = biological target: T4, ERα (Homo sapiens, UniProt P03372); assay: Immunostaining of endogenous receptors in MCF-7 cells; settings: MCF-7, 1 hour
T4 sequence (P03372 1-595): T3 sequence (P03372 1-595)

ERβ = ERβ (Homo sapiens, UniProt Q92731); assay: as above; settings: MCF-7, 1 hour
GPER [4] = biological target: T2, GPER; assay: as above; settings: MCF-7, 1 hour
GPER [5] = biological target: T2, GPER; assay: Competitive binding assay in intact SKBR3 cells with E2-FITC as fluoro-tracer (flow cytometry); set-up: endogenous in cells; host or cells: SKBR3 human breast carcinoma cells (ATCC); settings: concentrations as high as 10 mM
[6] = increasing doses, 1 hour, partial PROTAC 100 µM

Sequence of HiBiT-GPER (Q99527 whole entry): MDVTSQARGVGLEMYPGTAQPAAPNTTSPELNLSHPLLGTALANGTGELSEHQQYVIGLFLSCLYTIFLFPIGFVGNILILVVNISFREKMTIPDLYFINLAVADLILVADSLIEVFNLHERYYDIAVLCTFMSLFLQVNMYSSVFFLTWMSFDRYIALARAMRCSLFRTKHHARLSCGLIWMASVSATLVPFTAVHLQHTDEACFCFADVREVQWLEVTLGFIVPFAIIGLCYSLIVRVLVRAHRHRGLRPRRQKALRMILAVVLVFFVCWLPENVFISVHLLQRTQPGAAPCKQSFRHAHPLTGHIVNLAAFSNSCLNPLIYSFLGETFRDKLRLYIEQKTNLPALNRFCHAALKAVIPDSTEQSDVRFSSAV
T2 sequence (Q99527 whole entry): as above
T1 sequence (Q99527 whole entry): as above
Sequence of ERβ (Q92731 whole entry): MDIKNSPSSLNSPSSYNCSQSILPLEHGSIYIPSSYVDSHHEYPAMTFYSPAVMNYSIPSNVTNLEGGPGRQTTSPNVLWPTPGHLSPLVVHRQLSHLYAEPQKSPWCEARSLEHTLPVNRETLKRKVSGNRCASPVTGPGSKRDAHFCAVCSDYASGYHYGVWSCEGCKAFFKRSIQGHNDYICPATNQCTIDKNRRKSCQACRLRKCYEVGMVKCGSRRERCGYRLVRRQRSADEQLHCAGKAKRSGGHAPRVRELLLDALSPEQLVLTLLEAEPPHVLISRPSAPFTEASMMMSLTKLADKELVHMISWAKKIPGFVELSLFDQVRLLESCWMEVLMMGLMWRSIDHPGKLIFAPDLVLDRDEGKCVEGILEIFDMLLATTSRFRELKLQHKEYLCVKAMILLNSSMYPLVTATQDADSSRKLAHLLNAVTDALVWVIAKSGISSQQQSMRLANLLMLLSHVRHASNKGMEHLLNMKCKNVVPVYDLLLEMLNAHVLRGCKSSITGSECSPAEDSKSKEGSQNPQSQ

COc1ccc(CNc2ccc(C(C)C)cc2N2CCN(C(=O)COCCOCCOCCOCC(=O)NC(C(=O)N3CC(O)CC3C(=O)NCc3ccc(-c4scnc4C)cc3)C(C)(C)C)CC2)cc1 (stereo not drawn) [CIMBA-PROTAC-001]
degradation of recombinant GPER [1]: degrades recombinant GPER

C[C@]12CC[C@@H]3c4ccc(O)cc4C[C@@H](CCCCCCCCC[S+]([O-])CCCC(F)(F)C(F)(F)F)[C@H]3[C@@H]1CC[C@@H]2O (stereo partly drawn) [Fulvestrant]
relative binding activity (GPER [2]): 5%
concentration at which it functions as a GPER agonist (GPER [3]): 500 nM

CC(C)C[C@@H](C=O)NC(=O)[C@H](CC(C)C)NC(=O)[C@H](CC(C)C)NC(=O)OCc1ccccc1 [MG132] (Cbz-Leu-Leu-Leu-aldehyde)
effect on UI-EP001 / UI-EP002 degradation of HiBiT-GPER (HiBiT-GPER): reversed
effect on UI-EP001 / UI-EP002 degradation of HiBiT-ERα (HiBiT-ERα): reversed

Cc1ncsc1-c1ccc(CNC(=O)C2CC(O)CN2C(=O)C(NC(=O)COCCOCCOCCOCC(=O)O)C(C)(C)C)cc1 (stereo not drawn) [Partial PROTAC, reference compound]
receptor present after treatment (HiBiT-GPER; 100 µM, 8 hrs, recombinant receptor, GPER or ER not specified): 83%
change of HiBiT-GPER (HiBiT-GPER; [6]): did not show any significant decrease
change of HiBiT-ERα (HiBiT-ERα; [6]): did not show any significant decrease
cell cycle distribution (HCC1806 cells): much less significant shift
cell cycle distribution (MCF-7 cells): much less significant shift
cell cycle distribution (SKBR3 cells): much less significant shift
nuclear ERα expression (ERα): did not impact
nuclear ERβ expression (ERβ): did not impact
intracellular GPER expression (GPER [4]): did not impact
competition for E2-FITC binding (GPER [5]): unable to compete for E2-FITC binding

C[C@]12CCC(=O)C=C1CC[C@@H]1[C@@H]2[C@@H](O)C[C@]2(C=O)[C@@H](C(=O)CO)CC[C@@H]12 [aldosterone]
effect on UI-EP001 / UI-EP002 degradation of HiBiT-GPER (HiBiT-GPER): not aldosterone was capable of blocking
effect on UI-EP001 / UI-EP002 degradation of HiBiT-ERα (HiBiT-ERα): not aldosterone was capable of blocking

CCN(CC)CCCC(C)Nc1ccnc2cc(Cl)ccc12 (stereo not drawn) [chloroquine, chloroquine diphosphate]
effect on UI-EP001 / UI-EP002 degradation of HiBiT-GPER (HiBiT-GPER): had no such effect
